The test system of assay [1] is Pyricularia oryzae. It is filed as cell-based. The note with it: 125 ppm active compound, microtiter plate, absorption at 405 nm on day 7 after inoculation, relative to active compound-free control.
Assay [2] relates to Phytophthora infestans. It is filed as in vivo. The note with it: 250 ppm active compound, potted tomato plants, sprayed 1 day before infection, assessed after 6 days; untreated plants 70% infected.

SMILES strings stand for the structures.

For `CC(=O)Nc1c(-c2c(F)cc(F)cc2F)c(Cl)nc2ncnn12` [Example 4, N-[5-Chloro-6-(2,4,6-trifluorophenyl)(1,2,4-triazolo[1,5-a]pyrimidin-7-yl)]acetamide], the relative growth result in assay [1] is on record as “less than or equal to 1%”. Regarding `CCC(=O)Nc1c(-c2c(F)cc(F)cc2F)c(Cl)nc2ncnn12` [Example 5, N-[5-chloro-6-(2,4,6-trifluorophenyl)(1,2,4-triazolo-[1,5-a]pyrimidin-7-yl)]propionamide], the infection result in assay [2] is “less than or equal to 15%”.

Values taken from US20070197389A1 (priority 2004, published 2007).
